Source: US8652718B2, “Resin composition, image-forming material, and image-forming method” (Fuji Xerox Co., Ltd., priority 2012, dated 2014)
In brackets after ≈: the same amount, converted by molar mass. Read-outs that look alike come from different tables or passages of the source.

Experiments:
[1] = Visible near-infrared absorption spectrum in a tetrahydrofuran solution; format: physicochemical
Source text: The dark brown solid obtained as above is identified by an infrared absorption spectrum (KBr tablet method), a ^1H-NMR spectrum, a mass spectrum, and a visible near-infrared absorption spectrum. As a result, the dark brown solid described above is confirmed to have a molecular structure represented by Formula (I-1).
Visible Near-Infrared Absorption Spectrum (FIG. 1): […]

[2] = Measurement of solubility in tetrahydrofuran; format: physicochemical; conditions: for solubility: tetrahydrofuran, 24 °C, organic solvent or mixture, thermodynamic from solid, 24±1° C.; for Solubility in tetrahydrofuran compared to Formulae (II-1) and (II-2): comparison in words from Table 1
Procedure: The solubility of the compound represented by Formula (I-1) in tetrahydrofuran (24±1° C.) is measured in the following manner.
After 10.00 mg of the compound (dark brown solid) represented by Formula (I-1) is mixed with 5.00 ml of tetrahydrofuran in a screw vial, the vial is irradiated with ultrasonic waves for 30 minutes while the vial is sealed with a cap, and left to stand overnight at room temperature. The obtained solution is filtered through a membrane filter having a pore size of 25 nm, and a dry weight of the dark brown solid remaining on the filter is measured. As a result, the weight of the compound represented by Formula (I-1) dissolved in 5.00 ml of tetrahydrofuran is found, whereby the solubility in tetrahydrofuran may be calculated.

[3] = read-out: Solubility in tetrahydrofuran
[4] = read-out: Solubility in tetrahydrofuran, Relative evaluation

Maximum absorption wavelength (λmax) [1] [nm] | Molar absorption coefficient at the maximum absorption wavelength (εmax) [1] [M⁻¹ cm⁻¹] | solubility [2, 3] [µg/mL] | solubility [2, 4] [µg/mL] | Solubility in tetrahydrofuran compared to Formulae (II-1) and (II-2) [2] | SMILES
910 | 200000 | 1100 (≈ 1170 µM) | ≥ 1000 | – | CCCCCCc1ccc(C2=CC(=CC3=C([O-])/C(=C/c4cc(-c5ccc(CCCCCC)cc5)[s+]c(-c5ccc(CCCCCC)cc5)c4)C3=O)C=C(c3ccc(CCCCCC)cc3)S2)cc1 [II-3, reference compound]
908 | 180000 | 600 | 100 to 1000 | superior solubility in tetrahydrofuran | CCc1ccc(C2=CC(=CC3=C([O-])/C(=C/c4cc(-c5ccc(CC)cc5)[s+]c(-c5ccc(CC)cc5)c4)C3=O)C=C(c3ccc(CC)cc3)S2)cc1 [Formula I-3]
910 | 210000 | 1100 | ≥ 1000 | superior solubility in tetrahydrofuran | CCCCc1ccc(C2=CC(=CC3=C([O-])/C(=C/c4cc(-c5ccc(CCCC)cc5)[s+]c(-c5ccc(CCCC)cc5)c4)C3=O)C=C(c3ccc(CCCC)cc3)S2)cc1 [Formula I-2]

More lines, now with the values behind:

SMILES | Maximum absorption wavelength (λmax) [1] [nm] | Molar absorption coefficient at the maximum absorption wavelength (εmax) [1] [M⁻¹ cm⁻¹] | solubility [2, 3] [µg/mL] | solubility [2, 4] [µg/mL] | Solubility in tetrahydrofuran compared to Formulae (II-1) and (II-2) [2]
Cc1ccc(C2=CC(=CC3=C([O-])/C(=C/c4cc(-c5ccc(C)cc5)[s+]c(-c5ccc(C)cc5)c4)C3=O)C=C(c3ccc(C)cc3)S2)cc1 [II-2, reference compound] | 905 | 190000 | 300 (≈ 455 µM) | 100 to 1000 (≈ 152 to 1520 µM) | –
CC(C)(C)c1ccc(C2=CC(=CC3=C([O-])/C(=C/c4cc(-c5ccc(C(C)(C)C)cc5)[s+]c(-c5ccc(C(C)(C)C)cc5)c4)C3=O)C=C(c3ccc(C(C)(C)C)cc3)S2)cc1 [Formula I-1] | 908 | 269000 | 1300 | ≥ 1000 | superior solubility in tetrahydrofuran
O=C1C(C=C2C=C(c3ccccc3)SC(c3ccccc3)=C2)=C([O-])/C1=C/c1cc(-c2ccccc2)[s+]c(-c2ccccc2)c1 [II-1, reference compound] | 901 | 207000 | < 50 | < 100 | –
